For seven molecules, IC50, DC50 and Dmax results are on record in patent US20260167622A1, “PAN-KRAS DEGRADING AGENT, AND PREPARATION METHOD THEREFOR AND USE THEREOF” (LEADINGTAC PHARMACEUTICAL (SHAOXING) CO., LTD., priority 2022, published 2026).

What all share (format): cell-based
Experiment [1] has as its system KRAS G12V mutant human lung squamous carcinoma cell SW900. In words: 3D cell proliferation inhibition assay, SW900. To be noted: SW900, 168 h, 3D culture, 7 days, CTG. From the text:
(§1) Test Example 6: 3D Cell Proliferation Inhibition Assay
(§2) The inhibitory effects of the compounds on 3D cell proliferation were investigated on KRAS G12C mutant human non-small cell lung cancer cell NCI-H358, KRAS G12D mutant human lung cancer cell A427, KRAS G12D mutant human gastric cancer cell AGS, KRAS G12D mutant human metastatic pancreatic cancer cell AsPc-1, KRAS G12V mutant human lung squamous carcinoma cell SW900, KRAS G12V mutant human colorectal cancer cell SW620, KRAS G13D mutant human colorectal cancer epithelial cell DLD-1, and KRAS WT human gastric cancer cell MKN1. The specific procedures were as follows:
(§3) 10 μL of each compound solution diluted in a gradient was added to corresponding wells of a 96-well low-adsorption microplate (PerkinElmer), so that the final concentrations of the test compounds in the reaction system were in a range of 10000-0.026 nM. The final concentration of DMSO was 0.2%. Then 90 µL of cells were correspondingly seeded into each well to achieve a cell density of 5×10^2 cells/well (the cell density of SW900 was 5×10^3 cells/well, and the cell density of MKN1 was 1×10^3 cells/well). In addition to test wells for the test compounds, both a DMSO control well and a medium control well were set, with the DMSO control well containing DMSO and cells and the medium well containing only a medium. After the sample loading, the 96-well low-adsorption microplate was incubated in an incubator at 37° C. with […] for 7 days. After 7 days, the microplate was taken out, and 100 μL of CTG reagent (Promega) was added to each well. The plate was incubated at room temperature for 60 m and read on a microplate reader EnVision by the chemiluminescence program. The inhibition rates of the compounds at each concentration were calculated using the formula for the percentage inhibition of cell proliferation: inhibition rate 00=(mean value of DMSO control group−single concentration reading value of compound)/(mean value of DMSO control group−mean value of medium control group)×100. Then non-linear curve fillings for logarithmic concentration-inhibition rate were performed by GraphPad Prism 8, and the IC50 values of the compounds were obtained (Table 6).

The subject of experiment [2] is KRAS G12D mutant human metastatic pancreatic cancer cell AsPc-1. As to the kind of experiment: 3D cell proliferation inhibition assay, AsPc-1. To be noted: ASPC1, 168 h, 3D culture, 7 days, CTG. In outline: (§4)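 Cells were seeded in low-adsorption 96-well plates at 5×10^2 cells/well (MKN1 at 1×10^3) with compounds at final 10000-0.026 nM, 0.2% DMSO, and grown 7 days at 37° C. CTG luminescence gave inhibition relative to DMSO and medium-only controls, and IC50 came from a log-concentration curve fit.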

Experiment [3] deals with KRAS WT human gastric cancer cell MKN1. As to the kind of experiment: 3D cell proliferation inhibition assay, MKN1. To be noted: MKN-1, 168 h, 3D culture, 7 days, CTG. In outline:
as §4

Experiment [4] concerns KRAS G12D mutant human lung cancer cell A427. As to the kind of experiment: 3D cell proliferation inhibition assay, A427. The settings on record: A-427, 168 h, 3D culture, 7 days, CTG.
Description: as §1, §2, §3

The target of experiment [5] is T1, KRAS G12V protein in SW900 cells (Homo sapiens, UniProt P01116, G12V).
T1 construct: endogenous in cells; host or cells: SW900
T1 sequence (P01116 1-188 isoform P01116-2 G12V): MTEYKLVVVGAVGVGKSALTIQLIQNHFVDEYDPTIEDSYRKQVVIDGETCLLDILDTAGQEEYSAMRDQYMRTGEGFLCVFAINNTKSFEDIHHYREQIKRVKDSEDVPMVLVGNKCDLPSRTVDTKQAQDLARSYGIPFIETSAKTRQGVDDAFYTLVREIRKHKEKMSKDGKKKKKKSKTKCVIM
As to the kind of experiment: KRAS degradation assay (Western Blot) in SW900 cells. To be noted: 24 h. In outline: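 Degradation of KRAS measured by Western blot after 24 h exposure to compound (0.03–3000 nM final). Values are DC50 and Dmax.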
(A western blot detects proteins with antibodies after separation by electrophoresis.)

Experiment [6] has as its system KRAS G12C mutant human non-small cell lung cancer cell NCI-H358. As to the kind of experiment: 3D cell proliferation inhibition assay, NCI-H358. The settings on record: NCI-H358, 168 h, 3D culture, 7 days, CTG. In short, it runs like this: as §4
Experiment [7] has as its system KRAS G12D mutant human gastric cancer cell AGS. In words: 3D cell proliferation inhibition assay, AGS. To be noted: 168 h, 3D culture, 7 days, CTG.
Description: as §1, §2, §3

Experiment [8] deals with KRAS G13D mutant human colorectal cancer epithelial cell DLD-1. As to the kind of experiment: 3D cell proliferation inhibition assay, DLD-1. To be noted: DLD-1, 168 h, 3D culture, 7 days, CTG.
Description: as §1, §2, §3

Experiment [9] deals with KRAS G12V mutant human colorectal cancer cell SW620. As to the kind of experiment: 3D cell proliferation inhibition assay, SW620. To be noted: SW-620, 168 h, 3D culture, 7 days, CTG. In short, it runs like this: as §4

By IC50 is commonly meant the point on the concentration scale where inhibition reaches its midpoint. Low readings indicate inhibition by little substance, high ones a need for much substance. For orientation: DC50 means the concentration giving 50% degradation. Low readings indicate a more potent degrader, high ones a less potent degrader. Usually Dmax stands for the greatest extent of degradation seen. Low values mean a partial loss of target, high ones a fuller loss of target. For `CCc1c(F)ccc2cc(O)cc(-c3ncc4c(N5CCC[C@@](C)(O)C5)nc(OCC5(CN6CCC(CCOCC7CCN(C(=O)c8ccc(Cl)c(N9CCC(=O)NC9=O)c8)CC7)CC6)CC5)nc4c3F)c12` [Example 5, (R)-1-(2-chloro-5-(4-((2-(1-((1-(((7-(8-ethyl-7-fluoro-3-hydroxynaphthalen-1-yl)-8-fluoro-4-(3-hydroxy-3-methylpiperidin-1-yl)pyrido[4,3-d]pyrimidin-2-yl)oxy)methyl)cyclopropyl)methyl)piperidin-4-yl)ethoxy)methyl)piperidine-1-carbonyl)phenyl)dihydropyrimidine-2,4(1H,3H)-dione], the half-maximal inhibitory concentration (IC50) in experiment [1] was 50 to 100 nM; in experiment [2], ≤ 50 nM; in experiment [3], ≤ 50 nM; in experiment [4], ≤ 50 nM; in experiment [6], ≤ 50 nM; in experiment [7], ≤ 50 nM. Further, in [8], the IC50 is ≤ 50 nM. Also, the DC50 in experiment [5] was ≤ 50 nM. This molecule displayed a Dmax in experiment [5] of 80 to 100%.
In the case of `C#Cc1c(F)ccc2cc(O)cc(-c3ncc4c(N5CCC[C@@](C)(O)C5)nc(OCC5(CN6CCC(CCOCC7CCN(C(=O)c8ccc(Cl)c(N9CCC(=O)NC9=O)c8)CC7)CC6)CC5)nc4c3F)c12` [Example 8, (R)-1-(2-chloro-5-(4-((2-(1-((1-(((7-(8-ethynyl-7-fluoro-3-hydroxynaphthalen-1-yl)-8-fluoro-4-(3-hydroxy-3-methylpiperidin-1-yl)pyrido[4,3-d]pyrimidin-2-yl)oxy)methyl)cyclopropyl)methyl)piperidin-4-yl)ethoxy)methyl)piperidine-1-carbonyl)phenyl)dihydropyrimidine-2,4(1H,3H)-dione], the concentration for half-maximal inhibition (IC50) was ≤ 50 nM in [1]; ≤ 50 nM in [2]; ≤ 50 nM in experiment [3]; 50 to 100 nM in experiment [4]; ≤ 50 nM in experiment [6]; ≤ 50 nM in experiment [7]. Besides, in experiment [8], the 50% inhibitory concentration (IC50) is ≤ 50 nM. Moreover, in experiment [5], the half-maximal degradation concentration (DC50) was ≤ 50 nM. In experiment [5], this molecule displayed a Dmax of 80 to 100%.
As for `CCc1cccc2cc(O)cc(-c3ccc4c(N5CCC[C@@](C)(O)C5)nc(OCC5(CN6CCN(CC7CCC8(CC7)CCN(C(=O)c7ccc(Cl)c(N9CCC(=O)NC9=O)c7)CC8)CC6)CC5)nc4c3F)c12` [Example 12, (R)-1-(2-chloro-5-(9-((4-((1-(((7-(8-ethyl-3-hydroxynaphthalen-1-yl)-8-fluoro-4-(3-hydroxy-3-methylpiperidin-1-yl)quinazolin-2-yl)oxy)methyl)cyclopropyl)methyl)piperazin-1-yl)methyl)-3-azaspiro[5.5]undecane-3-carbonyl)phenyl)dihydropyrimidine-2,4(1H,3H)-dione], the IC50 in experiment [1] is ≤ 50 nM; in experiment [2] it was 100 to 500 nM; in [3], ≤ 50 nM; in experiment [4], 100 to 500 nM; in [6], ≤ 50 nM; in [9] it was 15.3 nM. Besides, in [7], the half-maximal inhibitory concentration (IC50) was ≤ 50 nM. Moreover, the half-maximal degradation concentration (DC50) in [5] is ≤ 50 nM. The molecule further registered a Dmax in [5] of 80 to 100%.
Consider `C#Cc1c(F)ccc2cc(O)cc(-c3ccc4c(N5CCC[C@@](C)(O)C5)nc(OCC5(CN6CCN(CC7CCC8(CC7)CCN(C(=O)c7ccc(OC)c(N9CCC(=O)NC9=O)c7)CC8)CC6)CC5)nc4c3F)c12` [Example 21, (R)-1-(5-(9-((4-((1-(((7-(8-ethynyl-7-fluoro-3-hydroxynaphthalen-1-yl)-8-fluoro-4-(3-hydroxy-3-methylpiperidin-1-yl)quinazolin-2-yl)oxy)methyl)cyclopropyl)methyl)piperazin-1-yl)methyl)-3-azaspiro[5.5]undecane-3-carbonyl)-2-methoxyphenyl)dihydropyrimidine-2,4(1H,3H)-dione], for which the IC50 in experiment [1] was ≤ 50 nM; in experiment [2], ≤ 50 nM; in [3] it was ≤ 50 nM; in experiment [4], 50 to 100 nM; in experiment [6], 100 to 500 nM; in experiment [9], 5.54 nM. Besides, the concentration for half-maximal inhibition (IC50) in [7] was ≤ 50 nM. For the same molecule, the 50% degradation concentration (DC50) in experiment [5] was ≤ 50 nM. Moreover, in [5], the greatest degradation seen (Dmax) was in the range of 80 to 100%.
As to `C#Cc1cccc2cc(O)cc(-c3ccc4c(N5CCC[C@@](C)(O)C5)nc(OCC5(CN6CCN(CC7CCC8(CC7)CCN(C(=O)c7ccc(OC)c(N9CCC(=O)NC9=O)c7)CC8)CC6)CC5)nc4c3F)c12` [Example 24, (R)-1-(5-(9-((4-((1-(((7-(8-ethynyl-3-hydroxynaphthalen-1-yl)-8-fluoro-4-(3-hydroxy-3-methylpiperidin-1-yl)quinazolin-2-yl)oxy)methyl)cyclopropyl)methyl)piperazin-1-yl)methyl)-3-azaspiro[5.5]undecane-3-carbonyl)-2-methoxyphenyl)dihydropyrimidine-2,4(1H,3H)-dione], the IC50 is ≤ 50 nM in [1]; ≤ 50 nM in experiment [2]; ≤ 50 nM in experiment [3]; 100 to 500 nM in experiment [4]; 100 to 500 nM in [6]; 9.33 nM in experiment [9]. The IC50 in experiment [7] lay in the range of 50 to 100 nM. The DC50 in experiment [5] was ≤ 50 nM. The Dmax in [5] lay in the range of 80 to 100%.
Regarding `C#Cc1c(F)ccc2cc(O)cc(-c3ccc4c(N5CCC[C@@](C)(O)C5)nc(OCC5(CN6CCC(CCOCC7CCN(C(=O)c8ccc(C)c(N9CCC(=O)NC9=O)c8)CC7)CC6)CC5)nc4c3F)c12` [Example 34, (R)-1-(5-(4-((2-(1-((1-(((7-(8-ethynyl-7-fluoro-3-hydroxynaphthalen-1-yl)-8-fluoro-4-(3-hydroxy-3-methylpiperidin-1-yl)quinazolin-2-yl)oxy)methyl)cyclopropyl)methyl)piperidin-4-yl)ethoxy)methyl)piperidine-1-carbonyl)-2-methylphenyl)dihydropyrimidine-2,4(1H,3H)-dione], the IC50 was ≤ 50 nM in [1]; ≤ 50 nM in experiment [2]; ≤ 50 nM in [3]; 100 to 500 nM in [4]; 50 to 100 nM in experiment [6]; ≤ 50 nM in [7]. Besides, the half-maximal degradation concentration (DC50) in experiment [5] is ≤ 50 nM. For the same molecule, in experiment [5], the maximal degradation (Dmax) lay within 80 to 100%.
As for `C#Cc1c(F)ccc2cc(O)cc(-c3ncc4c(N5CCC[C@@](C)(O)C5)nc(OCC5(CN6CCN(CC7CCC8(CC7)CCN(C(=O)c7ccc9c(c7)C(=O)N(C7CCC(=O)NC7=O)C9)CC8)CC6)CC5)nc4c3F)c12` (stereo partly drawn) [Example 35, 3-(6-(9-((4-((1-(((7-(8-ethynyl-7-fluoro-3-hydroxynaphthalen-1-yl)-8-fluoro-4-((R)-3-hydroxy-3-methylpiperidin-1-yl)pyrido[4,3-d]pyrimidin-2-yl)oxy)methyl)cyclopropyl)methyl)piperazin-1-yl)methyl)-3-azaspiro[5.5]undecane-3-carbonyl)-1-oxoisoindolin-2-yl)piperidine-2,6-dione], the half-maximal inhibitory concentration (IC50) is 100 to 500 nM in experiment [1]; ≤ 50 nM in [2]; ≤ 50 nM in experiment [3]; 500 to 1000 nM in experiment [4]; ≤ 50 nM in experiment [6]; ≤ 50 nM in experiment [7]. Also, in experiment [5], the DC50 was ≤ 50 nM. The maximal degradation (Dmax) in experiment [5] lay in the range of 80 to 100%.
